Test in all cases: 33PanQinase Activity Assay (in vitro protein kinase activity assay)
Holding throughout (format): biochemical
What all share (details): recombinant purified kinase, 1 µM [γ-33P]-ATP

One assay deals with T1, PDGFR-alpha (Homo sapiens, UniProt P16234).
T1 construct: made in house; host or cells: Sf9 insect cells (baculovirus)
Here is the method: (§1) Inhibition of protein kinases by compounds was measured in proprietary protein kinase activity assay (^33PanQinase® Activity Assay) using recombinant purified protein kinases. All protein kinases were expressed in Sf9 insect cells as recombinant GST-fusion proteins or His-tagged proteins by means of the baculovirus expression system. All kinases were produced from human cDNAs. Kinases were purified by affinity chromatography using either GSH-agarose (Sigma) or Ni-NTH-agarose (Qiagen). The purity of the protein kinases was examined by SDS-PAGE/Coomassie staining. Activity was measured by determination of the incorporation of radio labelled phosphate into a substrate. The reaction cocktails for all enzymes contained 60 mM HEPES-NaOH, 10 mM Tris/HCl, pH 7.5, 20 mM NaCl, 3 mM MgCl2, 3 mM MnCl2, 3 µM Na-orthovanadate, 2 mM DTT, 4% glycerol, 1 µM [γ-^33P]-ATP (approx. 6 x 10^5 cpm per well), protein kinase , and substrate. Table 1: Protein kinases inhibited with high potency in vitro by compound PQ-012, PQ-013, PQ-014, PQ-016, PQ-041, PQ-042.

For a further assay, the target named is T2, RSK2 (Homo sapiens, UniProt P51812).
T2 construct: made in house; host or cells: Sf9 insect cells (baculovirus)
T2 sequence (P51812 whole entry): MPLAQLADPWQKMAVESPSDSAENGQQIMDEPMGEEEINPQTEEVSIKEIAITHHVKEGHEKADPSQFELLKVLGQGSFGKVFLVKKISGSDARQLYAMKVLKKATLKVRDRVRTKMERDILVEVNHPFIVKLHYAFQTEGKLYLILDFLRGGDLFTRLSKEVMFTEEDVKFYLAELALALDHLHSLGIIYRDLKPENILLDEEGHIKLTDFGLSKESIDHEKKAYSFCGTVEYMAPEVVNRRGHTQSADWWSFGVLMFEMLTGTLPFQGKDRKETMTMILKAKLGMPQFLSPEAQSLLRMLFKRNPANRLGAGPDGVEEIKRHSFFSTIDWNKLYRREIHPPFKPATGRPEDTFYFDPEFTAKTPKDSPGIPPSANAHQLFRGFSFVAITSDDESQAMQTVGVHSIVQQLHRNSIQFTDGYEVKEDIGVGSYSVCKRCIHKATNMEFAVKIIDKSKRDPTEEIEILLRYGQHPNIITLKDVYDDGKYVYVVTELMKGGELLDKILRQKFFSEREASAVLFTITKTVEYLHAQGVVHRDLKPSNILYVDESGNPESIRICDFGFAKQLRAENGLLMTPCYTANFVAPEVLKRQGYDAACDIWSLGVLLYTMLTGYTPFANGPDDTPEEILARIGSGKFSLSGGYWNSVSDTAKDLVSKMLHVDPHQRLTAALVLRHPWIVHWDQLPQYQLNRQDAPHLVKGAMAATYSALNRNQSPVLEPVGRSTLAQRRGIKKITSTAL
Here is the method:
as §1

A further assay concerns the target T3, FLT3 D835Y (Homo sapiens, UniProt P36888, D835Y).
T3 construct: made in house; host or cells: Sf9 insect cells (baculovirus)
T3 sequence (P36888 27-993 D835Y): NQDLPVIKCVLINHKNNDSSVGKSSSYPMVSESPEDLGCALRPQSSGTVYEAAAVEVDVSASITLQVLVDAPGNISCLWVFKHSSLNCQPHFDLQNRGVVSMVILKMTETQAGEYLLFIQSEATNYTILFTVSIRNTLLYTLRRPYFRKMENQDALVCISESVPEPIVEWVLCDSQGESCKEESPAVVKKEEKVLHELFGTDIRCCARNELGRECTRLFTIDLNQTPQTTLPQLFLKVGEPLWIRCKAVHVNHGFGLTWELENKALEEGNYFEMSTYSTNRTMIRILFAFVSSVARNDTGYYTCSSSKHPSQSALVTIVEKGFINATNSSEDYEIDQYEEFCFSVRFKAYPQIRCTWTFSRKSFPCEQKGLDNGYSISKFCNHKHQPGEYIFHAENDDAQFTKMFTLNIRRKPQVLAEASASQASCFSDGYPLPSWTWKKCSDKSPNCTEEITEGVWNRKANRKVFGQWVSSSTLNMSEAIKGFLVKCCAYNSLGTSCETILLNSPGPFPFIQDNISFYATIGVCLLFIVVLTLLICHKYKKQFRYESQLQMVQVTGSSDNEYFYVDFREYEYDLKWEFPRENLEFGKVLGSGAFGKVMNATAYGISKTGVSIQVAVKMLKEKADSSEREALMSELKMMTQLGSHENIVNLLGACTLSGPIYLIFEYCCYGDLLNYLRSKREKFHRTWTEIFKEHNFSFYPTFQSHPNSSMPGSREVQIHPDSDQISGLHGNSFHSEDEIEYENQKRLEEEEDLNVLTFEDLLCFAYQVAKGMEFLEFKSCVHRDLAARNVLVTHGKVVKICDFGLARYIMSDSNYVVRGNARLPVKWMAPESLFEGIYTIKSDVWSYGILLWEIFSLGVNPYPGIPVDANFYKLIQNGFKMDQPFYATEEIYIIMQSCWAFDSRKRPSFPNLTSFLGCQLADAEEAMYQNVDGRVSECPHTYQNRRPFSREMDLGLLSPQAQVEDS
Here is the method: as §1

Another assay concerns the target T4, RSK1 (Homo sapiens, UniProt Q15418).
T4 construct: made in house; host or cells: Sf9 insect cells (baculovirus)
On the procedure: as §1

In another assay the target is T5, FAK (Homo sapiens, UniProt Q05397).
T5 construct: made in house; host or cells: Sf9 insect cells (baculovirus)
T5 sequence (Q05397 whole entry): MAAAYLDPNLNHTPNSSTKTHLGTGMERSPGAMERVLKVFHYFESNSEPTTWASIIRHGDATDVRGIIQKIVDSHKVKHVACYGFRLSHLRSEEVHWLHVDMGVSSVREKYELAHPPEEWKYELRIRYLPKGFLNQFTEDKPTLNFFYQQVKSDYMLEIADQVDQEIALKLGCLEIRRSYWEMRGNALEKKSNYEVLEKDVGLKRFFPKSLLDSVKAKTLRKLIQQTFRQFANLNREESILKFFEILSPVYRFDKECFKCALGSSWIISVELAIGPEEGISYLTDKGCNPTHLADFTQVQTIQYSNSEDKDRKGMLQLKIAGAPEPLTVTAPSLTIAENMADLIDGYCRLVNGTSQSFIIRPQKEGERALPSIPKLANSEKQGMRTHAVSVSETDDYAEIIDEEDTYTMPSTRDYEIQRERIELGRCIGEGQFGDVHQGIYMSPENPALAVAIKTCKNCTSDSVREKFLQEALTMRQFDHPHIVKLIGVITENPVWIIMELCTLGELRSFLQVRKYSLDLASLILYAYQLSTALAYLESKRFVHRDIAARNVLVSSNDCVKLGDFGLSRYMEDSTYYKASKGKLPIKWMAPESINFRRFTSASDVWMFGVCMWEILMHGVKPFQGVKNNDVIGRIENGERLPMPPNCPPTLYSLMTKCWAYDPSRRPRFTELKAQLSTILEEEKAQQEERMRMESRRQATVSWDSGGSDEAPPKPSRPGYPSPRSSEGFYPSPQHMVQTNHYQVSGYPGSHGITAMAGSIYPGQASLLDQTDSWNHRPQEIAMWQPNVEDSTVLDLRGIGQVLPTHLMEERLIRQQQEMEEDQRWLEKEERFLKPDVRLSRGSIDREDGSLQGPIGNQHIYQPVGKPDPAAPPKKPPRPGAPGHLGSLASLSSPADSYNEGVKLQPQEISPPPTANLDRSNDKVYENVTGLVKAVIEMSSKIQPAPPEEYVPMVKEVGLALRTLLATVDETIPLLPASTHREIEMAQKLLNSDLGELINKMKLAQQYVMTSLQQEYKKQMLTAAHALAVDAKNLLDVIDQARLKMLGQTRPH
On the procedure: as §1

The target of another assay is T6, RSK4 (Homo sapiens, UniProt Q9UK32).
T6 construct: made in house; host or cells: Sf9 insect cells (baculovirus)
Here is the method:
as §1

Another assay deals with T7, PDGFR-beta (Homo sapiens, UniProt P09619).
T7 construct: made in house; host or cells: Sf9 insect cells (baculovirus)
T7 sequence (P09619 33-1106): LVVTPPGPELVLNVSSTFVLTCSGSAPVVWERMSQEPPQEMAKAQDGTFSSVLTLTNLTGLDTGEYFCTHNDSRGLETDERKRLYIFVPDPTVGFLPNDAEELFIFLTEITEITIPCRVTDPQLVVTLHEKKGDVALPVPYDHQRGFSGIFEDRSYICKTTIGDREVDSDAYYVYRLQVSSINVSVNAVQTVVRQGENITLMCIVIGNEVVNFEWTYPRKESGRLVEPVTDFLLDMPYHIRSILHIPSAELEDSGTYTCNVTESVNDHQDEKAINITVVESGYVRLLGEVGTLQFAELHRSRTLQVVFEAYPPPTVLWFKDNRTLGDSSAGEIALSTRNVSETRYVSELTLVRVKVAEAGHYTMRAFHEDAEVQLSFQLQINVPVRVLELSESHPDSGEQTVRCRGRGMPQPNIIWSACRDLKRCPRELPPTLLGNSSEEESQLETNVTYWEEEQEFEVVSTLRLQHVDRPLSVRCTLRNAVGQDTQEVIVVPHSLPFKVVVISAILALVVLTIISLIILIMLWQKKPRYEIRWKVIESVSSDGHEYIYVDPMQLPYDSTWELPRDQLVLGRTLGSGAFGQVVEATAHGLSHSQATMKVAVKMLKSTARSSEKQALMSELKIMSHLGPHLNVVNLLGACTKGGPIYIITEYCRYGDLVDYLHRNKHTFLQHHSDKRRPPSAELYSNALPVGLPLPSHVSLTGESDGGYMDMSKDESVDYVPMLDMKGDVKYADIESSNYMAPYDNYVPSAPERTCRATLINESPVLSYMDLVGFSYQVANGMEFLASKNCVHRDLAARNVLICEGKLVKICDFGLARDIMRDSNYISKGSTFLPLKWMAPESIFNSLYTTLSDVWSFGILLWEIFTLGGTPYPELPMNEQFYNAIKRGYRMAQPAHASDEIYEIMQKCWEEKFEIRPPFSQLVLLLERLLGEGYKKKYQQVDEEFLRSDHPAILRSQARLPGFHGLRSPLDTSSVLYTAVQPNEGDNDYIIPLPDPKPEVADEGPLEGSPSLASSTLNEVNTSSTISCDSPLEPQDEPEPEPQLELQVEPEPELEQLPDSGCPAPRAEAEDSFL
Here is the method:
as §1

The next assay concerns the target T8, FLT3 wt (Homo sapiens, UniProt P36888).
T8 construct: made in house; host or cells: Sf9 insect cells (baculovirus)
T8 sequence (P36888 27-993): T3 sequence (P36888 27-993 D835Y) with Y809D
On the procedure:
as §1

Consider one molecule from patent EP2047849A1 (KTB Tumorforschungsgesellschaft mbH, priority 2007, dated 2009).

Numbering of substitutions follows the chain as printed. Where only a bound is given, the exact number is not on record here.

T4 sequence (Q15418 whole entry): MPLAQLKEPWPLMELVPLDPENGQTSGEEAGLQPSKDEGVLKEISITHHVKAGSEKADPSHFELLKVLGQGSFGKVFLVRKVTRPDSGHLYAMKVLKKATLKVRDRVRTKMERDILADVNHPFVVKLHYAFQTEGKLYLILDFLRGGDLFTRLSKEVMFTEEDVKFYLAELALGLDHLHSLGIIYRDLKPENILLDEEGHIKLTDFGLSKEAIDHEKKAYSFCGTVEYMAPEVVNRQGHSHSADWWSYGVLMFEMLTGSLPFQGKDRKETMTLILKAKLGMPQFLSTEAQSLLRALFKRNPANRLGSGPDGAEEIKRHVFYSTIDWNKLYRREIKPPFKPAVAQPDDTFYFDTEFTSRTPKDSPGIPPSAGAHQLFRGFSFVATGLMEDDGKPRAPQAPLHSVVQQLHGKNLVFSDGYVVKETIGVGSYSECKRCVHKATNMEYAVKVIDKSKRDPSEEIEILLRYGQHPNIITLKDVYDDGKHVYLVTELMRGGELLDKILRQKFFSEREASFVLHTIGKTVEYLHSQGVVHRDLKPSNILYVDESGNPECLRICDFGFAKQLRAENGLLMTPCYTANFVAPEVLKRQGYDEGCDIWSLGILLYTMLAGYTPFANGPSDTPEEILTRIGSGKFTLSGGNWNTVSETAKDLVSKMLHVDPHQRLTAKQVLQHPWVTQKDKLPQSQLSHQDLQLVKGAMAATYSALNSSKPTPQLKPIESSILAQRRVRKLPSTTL
T1 sequence (P16234 24-1089): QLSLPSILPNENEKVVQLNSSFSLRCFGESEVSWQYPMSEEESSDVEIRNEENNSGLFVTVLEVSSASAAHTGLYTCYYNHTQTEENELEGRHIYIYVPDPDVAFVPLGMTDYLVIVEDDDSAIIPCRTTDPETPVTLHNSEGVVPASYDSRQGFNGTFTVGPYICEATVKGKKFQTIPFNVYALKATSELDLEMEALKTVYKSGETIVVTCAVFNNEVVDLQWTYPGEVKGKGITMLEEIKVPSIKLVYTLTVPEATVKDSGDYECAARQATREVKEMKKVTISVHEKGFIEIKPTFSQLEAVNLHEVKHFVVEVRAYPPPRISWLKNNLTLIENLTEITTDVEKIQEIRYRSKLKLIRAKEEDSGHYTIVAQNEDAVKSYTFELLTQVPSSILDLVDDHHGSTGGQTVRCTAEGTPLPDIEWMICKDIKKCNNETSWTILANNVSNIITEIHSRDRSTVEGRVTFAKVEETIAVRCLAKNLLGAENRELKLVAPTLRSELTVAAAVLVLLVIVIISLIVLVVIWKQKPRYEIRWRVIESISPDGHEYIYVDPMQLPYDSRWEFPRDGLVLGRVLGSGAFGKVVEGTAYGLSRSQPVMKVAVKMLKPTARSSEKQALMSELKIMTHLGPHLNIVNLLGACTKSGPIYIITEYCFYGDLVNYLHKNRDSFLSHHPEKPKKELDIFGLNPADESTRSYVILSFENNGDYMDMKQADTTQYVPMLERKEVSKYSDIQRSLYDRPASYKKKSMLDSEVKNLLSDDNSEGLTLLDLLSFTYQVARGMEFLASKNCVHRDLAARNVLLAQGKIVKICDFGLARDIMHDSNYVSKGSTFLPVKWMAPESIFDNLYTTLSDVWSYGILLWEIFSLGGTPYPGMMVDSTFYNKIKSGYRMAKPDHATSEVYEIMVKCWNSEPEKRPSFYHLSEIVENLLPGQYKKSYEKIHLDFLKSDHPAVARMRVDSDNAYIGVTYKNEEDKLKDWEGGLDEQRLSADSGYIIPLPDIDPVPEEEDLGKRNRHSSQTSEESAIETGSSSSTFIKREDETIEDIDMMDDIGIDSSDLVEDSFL

For the molecule `COc1ccc2[nH]c3c(c4c(c5c6cc(OC)ccc6n(C)c35)C(=O)NC4=O)c2c1` [PQ-013, 6,7,12,13-Tetrahydro-3,9-dimethoxy-12-methyl-5,7 dioxo-5H-indolo [2,3-a] pyrrolo [3,4-c]-carbazole], the IC50 on PDGFR-alpha is 0.01 µM; on RSK2, 0.43 µM; at FLT3 D835Y, less than 0.003 µM; at RSK1, 0.023 µM; on FAK, 36 µM; on RSK4, 0.078 µM. Moreover, the IC50 amounted to 0.019 µM on PDGFR-beta and 0.0046 µM on FLT3 wt.
